# Data: article PMC5519977, “Redox-dependent substrate-cofactor interactions in the Michaelis-complex of a flavin-dependent oxidoreductase” (Nature Communications, 2017)
# Target: T1, xenobiotic reductase A (XenA) (Pseudomonas putida, UniProt Q3ZDM6)
# T1 construct: recombinant in E. coli Rosetta (DE3), pET28a; N-terminal His-tag removed with TEV protease; reconstituted with FMN
# Assay: stopped-flow reoxidation of reduced enzyme
# Type: biochemical
# Conditions: reduced enzyme (FMNH-), anoxic, 50 mM Tris/HCl pH 8.0, 25 °C
# T1 sequence (Q3ZDM6 entry or part of it): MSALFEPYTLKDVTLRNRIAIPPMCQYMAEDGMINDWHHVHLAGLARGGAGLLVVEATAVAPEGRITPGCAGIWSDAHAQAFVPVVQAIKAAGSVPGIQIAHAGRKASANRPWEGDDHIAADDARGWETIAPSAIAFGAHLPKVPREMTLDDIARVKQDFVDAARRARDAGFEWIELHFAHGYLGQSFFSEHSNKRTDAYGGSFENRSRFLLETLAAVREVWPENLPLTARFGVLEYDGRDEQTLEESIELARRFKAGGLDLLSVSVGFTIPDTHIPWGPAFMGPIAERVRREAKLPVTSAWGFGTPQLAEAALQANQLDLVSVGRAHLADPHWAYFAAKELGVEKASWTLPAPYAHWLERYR
row,SMILES,dissociation constant
1,O=c1ccc2ccc(O)cc2o1 [7-hydroxycoumarin],dissociation constants of the reduced Michaelis complexes for the respective substrates
2,O=c1ccc2cccc(O)c2o1 [8-hydroxycoumarin],dissociation constants of the reduced Michaelis complexes for the respective substrates
3,O=c1ccc2ccccc2o1 [coumarin],dissociation constants of the reduced Michaelis complexes for the respective substrates
